Experimental data taken from US20180125993A1 (BEIJING COTIMES BIOTECH COMPANY LIMITED, priority 2014, published 2018).

Tests used:
[1] = biological target: T1, DR4-His-EC (Homo sapiens, UniProt O00220); test: Binding specificity by chemiluminescent enzyme immunoassay (CLEIA); settings: antibody 200, 40 and 8 ng/mL; 1 hour, 37° C.
T1 construct: His; made in house; host or cells: E. coli
T1 sequence (O00220 24-468): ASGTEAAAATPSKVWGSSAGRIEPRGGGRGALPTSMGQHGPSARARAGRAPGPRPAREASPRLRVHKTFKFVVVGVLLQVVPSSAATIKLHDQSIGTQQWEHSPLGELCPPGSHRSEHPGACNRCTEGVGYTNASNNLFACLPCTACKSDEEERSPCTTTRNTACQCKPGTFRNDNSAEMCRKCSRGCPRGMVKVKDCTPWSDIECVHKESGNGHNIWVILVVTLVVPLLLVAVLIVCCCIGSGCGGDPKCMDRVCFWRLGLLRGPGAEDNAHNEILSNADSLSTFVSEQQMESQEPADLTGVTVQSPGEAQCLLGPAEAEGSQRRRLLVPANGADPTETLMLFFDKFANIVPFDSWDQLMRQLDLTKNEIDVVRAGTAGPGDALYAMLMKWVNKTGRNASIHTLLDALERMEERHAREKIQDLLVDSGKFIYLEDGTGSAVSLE
Procedure: The binding specificity of HuCTB006 was evaluated by chemiluminescent enzyme immunoassay (CLEIA).
HuCTB006 was diluted into 200, 40 and 8 ng/mL and then added to the wells. After 1 hour incubation in 37° C., the plate was washed. The binding of HuCTB006 with immobilized antigens was detected with HRP labeled secondary antibody and a substrate solution.

[2] = tested on: colon cancer, CS182, 5#; test: Patients primary tumor tissue subcutaneous model (Day 27 after treatment); assay type: in vivo, nude mice; settings: HuCTB006 10 mg/kg i.v. QW × 3w
Description: (§1) Fresh primary tumor tissues from patients were implanted in NOD/SCID mice's flank, which developed into a primary tumor, which was then transferred to the nude mice's flank to allow the tumor reaching an exponential growth phase, and the tumor was named 1# tumor, and so on. When the tumor volume and number reached passage requirements, they were implanted into the right flank of nude mice. When the tumors' average volumes reached 100-200 mm^3, the mice were grouped.
(§2) The bodyweight and major/minor axis of mice were measured twice a week, and Tumor Growth Inhibition (TGI) and tumor volume were calculated same as in 5.1.5. In addition, to evaluate the synergetic effect of drug combination in tumor growth, Jin Zhengjun Q value judgment method was used with the follow formula: Q=Ea+b/(Ea+Eb−Ea×Eb). Ea+b is the inhibition ratio of drug combination, Ea and Eb are the inhibition ratio of each of drug treatment when it is administered alone. […] The animals were monitored, and when the experiments were concluded, mice were sacrificed and tumors were extracted and weighted. All the animal experiments confer to the regulations of animal's welfare and the management of experimental animal usage.
(§3) Tumor volumes were represented with average±standard error. Data analysis was done using Spss16.0, One-Way ANOVA, LSD (homogeneity of variance) or Dunnett T3 (non-homogeneity of variance). […] P<0.05 represents significant difference.

[3] = tested on: NUGC3; test: In vitro cytotoxic sensitivity of CTB006; assay type: cell-based, human; settings: NUGC3, Stomach cancer
[4] = tested on: MDA-MB-453; test: In vitro cytotoxic sensitivity of CTB006; assay type: cell-based, human; settings: MDA-MB-453, Breast cancer
[5] = tested on: H460; test: In vitro cytotoxic sensitivity of CTB006; assay type: cell-based, human; settings: H460, Lung cancer
[6] = tested on: MDA-MB-468; test: In vitro cytotoxic sensitivity of CTB006; assay type: cell-based, human; settings: MDA-MB-468, Breast cancer
[7] = tested on: SKOV3; test: In vitro cytotoxic sensitivity of CTB006; assay type: cell-based, human; settings: SKOV3, Ovarian cancer
[8] = tested on: lung cancer, CS225, 1#; test: Patients primary tumor tissue subcutaneous model (Day 37 after treatment); assay type: in vivo, nude mice; settings: HuCTB006 10 mg/kg i.v. QW × 5w
Description: as §1, §2, §3

[9] = tested on: PANC-1; test: In vitro cytotoxic sensitivity of CTB006; assay type: cell-based, human; settings: PANC-1, Pancreatic cancer
[10] = tested on: MIA-PaCa-2; test: Human pancreatic cancer MIA-PaCa-2 subcutaneous model (34 days of treatment); settings: for Tumor regression: treatment groups
Procedure: Tumor cells (i.e., MIA-PaCa-2, WiDr, H2122, colo205) were inoculated in nude mice's flank at 5×10^6 cells per mouse. The mice were grouped when the average volume of tumors reached about 100˜200 mm^3. “QW”=weekly dose. “Q3d”=dosed every third day. “BiW”=biweekly.
The bodyweight and major/minor axis of the mice were measured twice a week, and the tumor volumes were calculated using the formula: Tumor volume=1/2×major axis×minor axis. […] “T” represents average tumor volume of the experimental group (cm^3), and “C” represents average tumor volume of the control group (cm^3). The animals were monitored at all times. The bodyweight and major/minor axis or mice were measured twice a week. When the experiments were concluded, mice were sacrificed and tumors were extracted and weighted.

[11] = HuCTB006 0.2 mg/kg i.v. QW × 6W
[12] = HuCTB006 0.6 mg/kg i.v. QW × 6W
[13] = repeated experiment, HuCTB006 0.2 mg/kg
[14] = repeated experiment, HuCTB006 0.6 mg/kg
[15] = repeated experiment, HuCTB006 1 mg/kg
[16] = repeated experiment, HuCTB006 10 mg/kg

## HuCTB006: Monospecific humanized chimeric monoclonal antibody directed to TRAIL-R2 receptor; heavy chain SEQ ID NO: 14, light chain SEQ ID NO: 12
[1]
  cross-reaction with coated antigen: no cross-reaction
[2]
  T/C % (Calculated using tumor volumes): 102.39%
  Time of tumor volume changed significantly: 3
  Tumor Volume Mean ± SEM: 0.95 ± 0.06 cm^3
  Tumor weight Mean ± SEM: 0.64 ± 0.06 g
[2]; 10 mg/kg
  TGI (Calculated using tumor volumes): −21.15%
  TGI (Calculated using tumor weight): −9.22%
[2]; listed as HUCTB006, 10 mg/kg
  TGI (Calculated using tumor volumes): −21.15%
  TGI (Calculated using tumor weight): −9.22%
[3]
  In vitro cytotoxic sensitivity of CTB006: Partial-responder
[4]
  In vitro cytotoxic sensitivity of CTB006: Non-responder
[5]
  In vitro cytotoxic sensitivity of CTB006: Partial-responder
[6]
  In vitro cytotoxic sensitivity of CTB006: Non-responder
[7]
  In vitro cytotoxic sensitivity of CTB006: Non-responder
[8]
  T/C % (Calculated using tumor volumes): 79.86%
  Time of tumor volume changed significantly: 16
  Tumor Volume Mean ± SEM: 0.86 ± 0.19 cm^3
  Tumor weight Mean ± SEM: 0.89 ± 0.23 g
[8]; 10 mg/kg
  TGI (Calculated using tumor volumes): 19.65%
  TGI (Calculated using tumor weight): −25.23%
[9]
  In vitro cytotoxic sensitivity of CTB006: Non-responder
[10]; [11]
  T/C % (Calculated using tumor volumes): 52.01%
  Time of tumor volume changed significantly: 13 days after first treatment
  Tumor Volume Mean ± SEM: 1.76 ± 0.15 cm^3
  Tumor weight Mean ± SEM: 0.79 ± 0.07 g
[10]; [12]
  T/C % (Calculated using tumor volumes): 38.43%
  Tumor Volume Mean ± SEM: 1.27 ± 0.43 cm^3
  Tumor weight Mean ± SEM: 0.54 ± 0.21 g
[10]; HuCTB006 1 mg/kg i.v. QW × 6W
  T/C % (Calculated using tumor volumes): 24.02%
  Tumor Volume Mean ± SEM: 0.88 ± 0.35 cm^3
  Tumor weight Mean ± SEM: 0.37 ± 0.19 g
[10]; HuCTB006 10 mg/kg i.v. QW × 6W
  T/C % (Calculated using tumor volumes): 23.01%
  Time of tumor volume changed significantly: 7^2 days after first treatment
  Tumor Volume Mean ± SEM: 0.76 ± 0.22 cm^3
  Tumor weight Mean ± SEM: 0.19 ± 0.08 g
[10]; first experiment
  Tumor regression: some animals of HuCTB006 groups showed tumor regression
[10]; repeated experiment
  Tumor regression: some animals of HuCTB006 groups also showed tumor regression
[10]; [13]
  TGI calculated based on the tumor volume: 59.52%
  TGI calculated based on the tumor weight: 72.38%
[10]; [14]
  TGI calculated based on the tumor volume: 85.35%
  TGI calculated based on the tumor weight: 91.39%
[10]; [15]
  TGI calculated based on the tumor volume: 87.52%
  TGI calculated based on the tumor weight: 92.02%
[10]; [16]
  TGI calculated based on the tumor volume: 58.99%
  TGI calculated based on the tumor weight: 71.93%
[10]; treatment groups over the time
  Bodyweights of mice: slow increase over the time
